*1 amine or outer side, *2 acyl side, *3 side chain or, on linkers, in order; H or OH if unused. Where a SMILES comes first, the peptide text is derived from it. Side-chain parts run from the residue outwards. [ ]: non-standard residue; d: D form. The star is where a group is joined. γGlu = O=C(O)[C@H](CCC(=O)[*:2])N[*:1]; 1Nal = N[C@@H](Cc1cccc2ccccc12)C(=O)O; Stearoyl = CCCCCCCCCCCCCCCCCC(=O)*; Nle = CCCC[C@H](N)C(=O)O; AEEA = NCCOCCOCC(=O)O; Aib = CC(C)(N)C(=O)O
Molecular target: T1, RXFP1 (Homo sapiens, UniProt Q9HBX9)
T1 construct: OVCAR5 cells expressing endogenous RXFP1; endogenous in cells; host or cells: OVCAR5 cells
T1 sequence (Q9HBX9 1-757): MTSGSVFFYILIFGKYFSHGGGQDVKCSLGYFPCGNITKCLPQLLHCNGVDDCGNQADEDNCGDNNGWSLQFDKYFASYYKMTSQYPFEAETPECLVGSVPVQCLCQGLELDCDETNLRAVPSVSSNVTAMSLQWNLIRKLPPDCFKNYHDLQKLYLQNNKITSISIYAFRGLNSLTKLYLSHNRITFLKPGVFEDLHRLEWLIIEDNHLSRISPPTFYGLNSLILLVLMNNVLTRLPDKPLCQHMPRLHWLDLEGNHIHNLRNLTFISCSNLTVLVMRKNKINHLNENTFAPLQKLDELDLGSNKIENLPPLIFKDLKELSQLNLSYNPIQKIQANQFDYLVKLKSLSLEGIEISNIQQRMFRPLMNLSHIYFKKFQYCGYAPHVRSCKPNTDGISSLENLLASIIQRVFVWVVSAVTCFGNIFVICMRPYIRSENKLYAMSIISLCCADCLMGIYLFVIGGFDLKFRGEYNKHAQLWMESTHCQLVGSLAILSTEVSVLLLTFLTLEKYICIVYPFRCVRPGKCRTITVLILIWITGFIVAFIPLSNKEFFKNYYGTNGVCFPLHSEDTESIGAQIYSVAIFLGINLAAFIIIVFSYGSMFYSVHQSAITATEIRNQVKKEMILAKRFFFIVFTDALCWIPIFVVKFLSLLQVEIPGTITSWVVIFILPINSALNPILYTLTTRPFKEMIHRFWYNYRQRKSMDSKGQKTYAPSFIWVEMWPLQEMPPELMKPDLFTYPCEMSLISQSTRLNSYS
Assay: OVCAR5 cAMP assay (HTRF), RXFP1 agonist activity
Assay type: cell-based
Settings: for EC50: OVCAR5 cells, cAMP HTRF, read-out: EC50 (nM), OVCAR 5 cells (cAMP); for Emax: OVCAR-5, maximal cAMP relative to H2-relaxin maximum (100%), read-out: EMax, OVCAR 5 cells (cAMP)
Method in brief: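 cAMP accumulation readout: after 1 mM IBMX for 40 min, endogenous-RXFP1 OVCAR5 cells got rising peptide concentrations without FCS, 30 min, 37° C, then lysis with HTRF cAMP reagents. Nonlinear regression gave EC50; Emax expressed relative to H2-relaxin maximum, same occasion.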

SMILES	EC50	Emax
CCCCCCCCCCCCCCCCCC(=O)N[C@@H](CCC(=O)N[C@@H](CCC(=O)N[C@@H](CCC(=O)NCCOCCOCC(=O)NCCOCCOCC(=O)NCCCC[C@H](NC(=O)[C@H](CCCCN)NC(=O)[C@H](CCCNC(=N)N)NC(=O)C(C)(C)NC(=O)[C@H](CO)NC(=O)[C@H](Cc1c[nH]c2ccccc12)NC(=O)[C@@H](NC(=O)[C@H](CO)NC(=O)[C@H](CCCC)NC(=O)CNC(=O)[C@H](CCC(=O)O)NC(=O)C(C)(C)NC(=O)C(C)(C)NC(=O)[C@@H](NC(=O)[C@H](CCCCNC(C)=O)NC(=O)[C@H](C)NC(=O)[C@H](CCCNC(=N)N)NC(=O)[C@@H](NC(=O)[C@H](CCCCN)NC(=O)[C@H](CCC(=O)O)NC(=O)[C@H](CCCNC(=N)N)NC(=O)CNC(=O)[C@H](CCC(=O)O)NC(=O)[C@H](CC(C)C)NC(C)=O)C(C)C)[C@@H](C)CC)[C@@H](C)O)C(N)=O)C(=O)O)C(=O)O)C(=O)O [compound 73] (Ac-LEGREKVRAK(Ac)I[Aib][Aib]EG[Nle]STWS[Aib]RKK([AEEA-AEEA-γGlu-γGlu-γGlu-Stearoyl])-NH2)	0.12 nM	90%
CCCCCCCCCCCCCCCCCC(=O)N[C@@H](CCC(=O)N[C@@H](CCC(=O)N[C@@H](CCC(=O)NCCOCCOCC(=O)NCCOCCOCC(=O)NCCOCCOCC(=O)NCCCC[C@H](NC(=O)[C@H](CCCCN)NC(=O)[C@H](CCCCN)NC(=O)[C@H](CCCNC(=N)N)NC(=O)C(C)(C)NC(=O)[C@H](CO)NC(=O)[C@H](Cc1c[nH]c2ccccc12)NC(=O)[C@@H](NC(=O)[C@H](CO)NC(=O)[C@H](CCCC)NC(=O)CNC(=O)[C@H](CCC(=O)O)NC(=O)C(C)(C)NC(=O)C(C)(C)NC(=O)[C@@H](NC(=O)[C@H](CCC(N)=O)NC(=O)[C@H](C)NC(=O)[C@H](CCCNC(=N)N)NC(=O)[C@@H](NC(=O)[C@H](CCCCN)NC(=O)[C@H](CCC(=O)O)NC(=O)[C@H](CCCNC(=N)N)NC(=O)CNC(=O)[C@H](CCC(=O)O)NC(=O)[C@H](CC(C)C)NC(C)=O)C(C)C)[C@@H](C)CC)[C@@H](C)O)C(N)=O)C(=O)O)C(=O)O)C(=O)O [compound 75] (Ac-LEGREKVRAQI[Aib][Aib]EG[Nle]STWS[Aib]RKKK([AEEA-AEEA-AEEA-γGlu-γGlu-γGlu-Stearoyl])-NH2)	0.07 nM	88%
CCCCCCCCCCCCCCCCCC(=O)N[C@@H](CCC(=O)N[C@@H](CCC(=O)N[C@@H](CCC(=O)NCCOCCOCC(=O)NCCOCCOCC(=O)NCCOCCOCC(=O)NCCCC[C@H](NC(=O)[C@H](CCCCN)NC(=O)[C@H](CCCCN)NC(=O)[C@H](CCCNC(=N)N)NC(=O)C(C)(C)NC(=O)[C@@H](NC(=O)[C@H](Cc1c[nH]c2ccccc12)NC(=O)[C@@H](NC(=O)[C@H](CO)NC(=O)[C@H](CCCC)NC(=O)CNC(=O)[C@H](CCC(=O)O)NC(=O)C(C)(C)NC(=O)C(C)(C)NC(=O)[C@@H](NC(=O)[C@H](CCC(N)=O)NC(=O)[C@H](C)NC(=O)[C@H](CCCNC(=N)N)NC(=O)[C@@H](NC(=O)[C@H](CCCCN)NC(=O)[C@H](CCC(=O)O)NC(=O)[C@H](CCCNC(=N)N)NC(=O)CNC(=O)[C@H](CCC(=O)O)NC(=O)[C@H](CC(C)C)NC(C)=O)C(C)C)[C@@H](C)CC)[C@@H](C)O)[C@@H](C)O)C(N)=O)C(=O)O)C(=O)O)C(=O)O [compound 76] (Ac-LEGREKVRAQI[Aib][Aib]EG[Nle]STWT[Aib]RKKK([AEEA-AEEA-AEEA-γGlu-γGlu-γGlu-Stearoyl])-NH2)		89%
CCCCCCCCCCCCCCCCCC(=O)N[C@@H](CCC(=O)N[C@@H](CCC(=O)N[C@@H](CCC(=O)NCCOCCOCC(=O)NCCOCCOCC(=O)NCCOCCOCC(=O)NCCCC[C@H](NC(=O)[C@H](CCCCN)NC(=O)[C@H](CCCCN)NC(=O)[C@H](CCCNC(=N)N)NC(=O)C(C)(C)NC(=O)[C@H](CO)NC(=O)[C@H](Cc1c[nH]c2ccccc12)NC(=O)[C@@H](NC(=O)[C@H](CO)NC(=O)[C@H](CCCC)NC(=O)CNC(=O)[C@H](CCC(=O)O)NC(=O)C(C)(C)NC(=O)C(C)(C)NC(=O)[C@@H](NC(=O)[C@H](CCC(N)=O)NC(=O)[C@H](CC(C)C)NC(=O)[C@H](CCCNC(=N)N)NC(=O)[C@@H](NC(=O)[C@H](CCCCN)NC(=O)[C@H](CCC(=O)O)NC(=O)[C@H](CCCNC(=N)N)NC(=O)CNC(=O)[C@H](CCC(=O)O)NC(=O)[C@H](CC(C)C)NC(C)=O)C(C)C)[C@@H](C)CC)[C@@H](C)O)C(N)=O)C(=O)O)C(=O)O)C(=O)O [compound 77] (Ac-LEGREKVRLQI[Aib][Aib]EG[Nle]STWS[Aib]RKKK([AEEA-AEEA-AEEA-γGlu-γGlu-γGlu-Stearoyl])-NH2)		92%
CCCCCCCCCCCCCCCCCC(=O)N[C@@H](CCC(=O)N[C@@H](CCC(=O)N[C@@H](CCC(=O)NCCOCCOCC(=O)NCCOCCOCC(=O)NCCOCCOCC(=O)NCCCC[C@H](NC(=O)[C@H](CCCCNC(C)=O)NC(=O)[C@H](CCCCN)NC(=O)[C@H](CCCNC(=N)N)NC(=O)C(C)(C)NC(=O)[C@H](CO)NC(=O)[C@H](Cc1ccc(O)cc1)NC(=O)[C@@H](NC(=O)[C@H](CO)NC(=O)[C@H](CCCC)NC(=O)CNC(=O)[C@H](CCC(=O)O)NC(=O)C(C)(C)NC(=O)C(C)(C)NC(=O)[C@@H](NC(=O)[C@H](CCCCNC(C)=O)NC(=O)[C@H](C)NC(=O)[C@H](CCCNC(=N)N)NC(=O)[C@@H](NC(=O)[C@H](CCCCN)NC(=O)[C@H](CCC(=O)O)NC(=O)[C@H](CCCNC(=N)N)NC(=O)CNC(=O)[C@H](CCC(=O)O)NC(=O)[C@H](CC(C)C)NC(C)=O)C(C)C)[C@@H](C)CC)[C@@H](C)O)C(N)=O)C(=O)O)C(=O)O)C(=O)O [compound 78] (Ac-LEGREKVRAK(Ac)I[Aib][Aib]EG[Nle]STYS[Aib]RKK(Ac)K([AEEA-AEEA-AEEA-γGlu-γGlu-γGlu-Stearoyl])-NH2)	1.04 nM	73%
CCCCCCCCCCCCCCCCCC(=O)N[C@@H](CCC(=O)N[C@@H](CCC(=O)N[C@@H](CCC(=O)NCCOCCOCC(=O)NCCOCCOCC(=O)NCCOCCOCC(=O)NCCCC[C@H](NC(=O)[C@H](CCCCN)NC(=O)[C@H](CCCNC(=N)N)NC(=O)C(C)(C)NC(=O)[C@H](CO)NC(=O)[C@H](Cc1cccc2ccccc12)NC(=O)[C@@H](NC(=O)[C@H](CO)NC(=O)[C@H](CCCC)NC(=O)CNC(=O)[C@H](CCC(=O)O)NC(=O)C(C)(C)NC(=O)C(C)(C)NC(=O)[C@@H](NC(=O)[C@H](CCCCNC(C)=O)NC(=O)[C@H](C)NC(=O)[C@H](CCCNC(=N)N)NC(=O)[C@@H](NC(=O)[C@H](CCCCN)NC(=O)[C@H](CCC(=O)O)NC(=O)[C@H](CCCNC(=N)N)NC(=O)CNC(=O)[C@H](CCC(=O)O)NC(=O)[C@H](CC(C)C)NC(C)=O)C(C)C)[C@@H](C)CC)[C@@H](C)O)C(N)=O)C(=O)O)C(=O)O)C(=O)O [compound 79] (Ac-LEGREKVRAK(Ac)I[Aib][Aib]EG[Nle]ST[1Nal]S[Aib]RKK([AEEA-AEEA-AEEA-γGlu-γGlu-γGlu-Stearoyl])-NH2)	0.4 nM	75%

Source: patent US10988523B2, “Modified lipidated Relaxin B chain peptides and their therapeutic use” (Sanofi, priority 2018, dated 2021)
